Experimental findings from patent publication US20180282323A1, “Mesoionic imidazole derivatives as insecticides” (BAYER CROPSCIENCE AKTIENGESELLSCHAFT, priority 2015, published 2018) are described below.

Structures are written as SMILES.

The nature of data set [1]: log P by HPLC on reversed-phase column (EEC directive 79/831 Annex V.A8). The format is physicochemical. The settings on record: for log p: HPLC on reversed-phase column (footnote a); for log p a): HPLC on reversed-phase column. A digest of the protocol:
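Reversed-phase (C18) HPLC at 43° C, following EEC directive 79/831 Annex V.A8.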

In a further data set the test system is Meloidogyne incognita. Briefly: Meloidogyne incognita test. Format: in vivo. The settings on record: application rate 20 ppm, formation of galls on lettuce after 14 days. On the procedure: Meloidogyne incognita Test Solvent: 125.0 parts by weight of acetone
To produce a suitable preparation of active ingredient, 1 part by weight of active ingredient is mixed with the stated amount of solvent and the concentrate is diluted with water to the desired concentration.
Vessels are filled with sand, active ingredient solution, an egg/larvae suspension of the southern root-knot nematode (Meloidogyne incognita) and lettuce seeds. The lettuce seeds germinate and the plants develop. The galls develop on the roots.
After 14 days, the nematicidal efficacy in % is determined by the formation of galls. 100% means that no galls were found; 0% means that the number of galls on the treated plants corresponds to the untreated control.

In data set [2] the test system is Myzus persicae. Briefly: Myzus persicae oral test. Conditions: application rate 20 ppm, oral uptake through parafilm, after 5 days. Format: in vivo. Summed up: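 Oral feeding format: mixed-stage Myzus persicae imbibe acetone/water compound formulation in sugared IPL41 medium through parafilm. Efficacy assessed as percent aphids killed at day 5.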
For the next data set, the system named is Boophilus microplus. Briefly: Boophilus microplus injection test. Conditions: application rate 20 μg/animal, assessed after 7 days by laying of fertile eggs. Format: in vivo. On the procedure:
Boophilus microplus—Injection Test Solvent: dimethyl sulphoxide
To produce a suitable active ingredient formulation, 10 mg of active ingredient are mixed with 0.5 ml of solvent and the concentrate is diluted with solvent to the desired concentration.
1 μl of the active ingredient solution is injected into the abdomen of 5 engorged adult female cattle ticks (Boophilus microplus). The animals are transferred into dishes and kept in a climate-controlled room.
Efficacy is assessed after 7 days by laying of fertile eggs. Eggs which are not visibly fertile are stored in a climate-controlled cabinet until the larvae hatch after about 42 days. An efficacy of 100% means that none of the ticks has laid any fertile eggs; 0% means that all the eggs are fertile.

For the next data set, the system named is Diabrotica balteata. The experiment in a line: Diabrotica balteata spray test. Format: in vivo. The settings on record: application rate 160 μg/well, wheat grains with beetle larvae, after 7 days. On the procedure: Diabrotica balteata—Spray Test Solvent: 78 parts by weight of acetone • • 1.5 parts by weight of dimethylformamide Emulsifier: alkylaryl polyglycol ether
To produce a suitable active ingredient formulation, 1 part by weight of active ingredient is dissolved with the stated parts by weight of solvent and made up with water containing an emulsifier concentration of 1000 ppm until the desired concentration is attained. To produce further test concentrations, the formulation is diluted with emulsifier-containing water.
Pre-swollen wheat grains (Triticum aestivum) are incubated in a multiwell plate filled with agar and a little water for one day (5 seed grains per cavity). The germinated wheat grains are sprayed with an active ingredient formulation of the desired concentration. Subsequently, each cavity is infected with 10-20 beetle larvae of Diabrotica balteata.
After 7 days, the efficacy in % is determined. 100% means that all wheat plants have grown as in the untreated, uninfected control; 0% means that no wheat plant has grown.

Another data set deals with Lucilia cuprina. Briefly: Lucilia cuprina test. Format: in vivo. The settings on record: application rate 100 ppm, L1 larvae, after 2 days. On the procedure:
Lucilia cuprina Test Solvent: dimethyl sulphoxide
To produce a suitable active ingredient formulation, 10 mg of active ingredient are mixed with 0.5 ml of dimethyl sulphoxide, and the concentrate is diluted with water to the desired concentration.
About 20 L1 larvae of the Australian sheep blowfly (Lucilia cuprina) are transferred into a test vessel containing minced horsemeat and the active ingredient formulation of the desired concentration.
After 2 days, the kill in % is determined. 100% means that all the larvae have been killed; 0% means that no larvae have been killed.

The subject of data set [3] is Myzus persicae. Briefly: Myzus persicae spray test (Chinese cabbage leaf discs). The settings on record: application rate 500 g/ha, after 6 days. Format: in vivo. Summed up:
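Active ingredient was formulated in acetone/DMF and diluted with water containing 1000 ppm emulsifier. Chinese cabbage leaf discs infested with all aphid stages were sprayed, and % kill was scored after 6 days (100% = all aphids dead).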

A further data set concerns Ctenocephalides felis. Briefly: Ctenocephalides felis in vitro contact test with adult cat fleas. Format: in vivo. The settings on record: application rate 5 μg/cm^2, after 48 h, adult cat fleas dead or moribund. On the procedure:
Ctenocephalides felis—In Vitro Contact Tests with Adult Cat Fleas
For the coating of the test tubes, 9 mg of active ingredient are first dissolved in 1 ml of acetone p.a. and then diluted to the desired concentration with acetone p.a. 250 μl of the solution are distributed homogeneously on the inner walls and the base of a 25 ml test tube by turning and rocking on an orbital shaker (rocking rotation at 30 rpm for 2 h). With 900 ppm of active ingredient solution and internal surface area 44.7 cm^2, given homogeneous distribution, an area-based dose of 5 μg/cm^2 is achieved.
After the solvent has evaporated off, the tubes are populated with 5-10 adult cat fleas (Ctenocephalides felis), sealed with a perforated plastic lid and incubated in a horizontal position at room temperature and ambient humidity. After 48 h, efficacy is determined. To this end, the test tubes are stood upright and the fleas are knocked to the base of the tube. Fleas which remain motionless at the base or move in an uncoordinated manner are considered to be dead or moribund.
100% efficacy means that all the fleas were dead or moribund. 0% efficacy means that no fleas were harmed.

Data set [4] relates to Myzus persicae. The experiment in a line: Myzus persicae spray test (bell pepper plants). The format is in vivo. The settings on record: application rate 100 ppm, after 6 days. On the procedure:
Myzus persicae—Spray Test Solvent: 14 parts by weight of dimethylformamide Emulsifier: alkylaryl polyglycol ether
To produce a suitable active ingredient formulation, 1 part by weight of active ingredient is dissolved with the stated parts by weight of solvent and made up with water containing an emulsifier concentration of 1000 ppm until the desired concentration is attained. To produce further test concentrations, the formulation is diluted with emulsifier-containing water. If the addition of ammonium salts or/and penetrants is required, these are each added in a concentration of 1000 ppm to the formulation solution.
Bell pepper plants (Capsicum annuum) severely infested with the green peach aphid (Myzus persicae) are treated by spraying with the active ingredient formulation in the desired concentration.
After 6 days, the kill in % is determined. 100% means that all of the aphids have been killed; 0% means that none of the aphids have been killed.

Turning to `Cc1ccc[n+]2c(C(=O)NCc3ccc(Cl)cc3)c([O-])n(Cc3ccc(Cl)nc3)c12` [Example I-1-176], the log p in [1] is 2.92. The compound further gave a nematicidal efficacy with Meloidogyne incognita of 90%.
As for `CC(c1cnc(Cl)s1)n1c([O-])c(C(=O)NC2CC2)[n+]2ccccc12` (centres unmarked) [Example I-1-254], the efficacy in the data set with Myzus persicae [2] is recorded as 100%; in the data set with Boophilus microplus, 80%; in the data set on Diabrotica balteata it was 100%; with Myzus persicae [3], 90%. For the same compound, in data set [1], the “log p a)” value is given as 1.94. The “efficacy (kill in %)” value in the data set on Lucilia cuprina is 100%.
Turning to `O=C(NCC1CC1)c1c([O-])n(Cc2cnc(Cl)s2)c2cccc[n+]12` [Example I-1-143], the efficacy in the data set on Ctenocephalides felis and in the data set on Diabrotica balteata was 100% throughout. Also, the log p in data set [1] is 1.99. The same compound gave a nematicidal efficacy in the data set with Meloidogyne incognita of 90%.
In turn, `CCOCC(=O)c1c([O-])n(Cc2ccc(Cl)nc2)c2c(Cl)ccc[n+]12` [Example I-1-116] yielded an efficacy with Myzus persicae [2] of 100%. The log p in data set [1] is on record as 1.78. Also, the nematicidal efficacy in the data set on Meloidogyne incognita was found to be 90%.
Regarding `CC(c1ccc(Cl)nc1)n1c([O-])c(C(=O)NC2CC2)[n+]2ccccc12` (centres unmarked) [Example I-1-202], the values for the efficacy in the data set with Myzus persicae [2], with Boophilus microplus and in the data set with Diabrotica balteata were 100%, 80% and 80%, respectively. In addition, the results for the “efficacy (kill in %)” value with Myzus persicae [4] and with Lucilia cuprina were 90% and 100%, respectively. In addition, in [1], the “log p a)” value amounted to 1.75.
On to `CC(C)CNC(=O)c1c([O-])n(Cc2cnc(Cl)s2)c2cccc[n+]12` [Example I-1-147], for which the values for the efficacy with Ctenocephalides felis, in the data set with Myzus persicae [2] and with Diabrotica balteata were 80%, 100% and 100%, respectively. Besides, in the data set on Myzus persicae [4], the “efficacy (kill in %)” value is reported as 100%. In addition, the log p in data set [1] was determined as 2.29. The compound also registered a nematicidal efficacy in the data set with Meloidogyne incognita of 90%.
As to `Cc1ccccc1NC(=O)c1c([O-])n(Cc2cnc(Cl)s2)c2cccc[n+]12` [Example I-1-239], the efficacy with Ctenocephalides felis and in the data set with Myzus persicae [2] was 100% throughout. Besides, the “log p a)” value in data set [1] was found to be 3.03.
Turning to `CCOCC(=O)c1c([O-])n(Cc2ccc(Cl)nc2)c2cccc[n+]12` [Example I-1-020], the efficacy in the data set on Myzus persicae [2] turned out to be 100%; in the data set with Boophilus microplus it was 80%; in the data set with Diabrotica balteata, 100%; with Myzus persicae [3] it was 90%. This compound also had a log p in data set [1] of 1.39.
As for `O=C(NC1CC1)c1c([O-])n(Cc2ccc(Cl)nc2)c2c(OC(F)(F)F)ccc[n+]12` [Example I-1-196], the log p in data set [1] was 2.33. Moreover, the nematicidal efficacy in the data set with Meloidogyne incognita is reported as 90%.
Take `Cc1cnn(CC(=O)c2c([O-])n(Cc3cnc(Cl)s3)c3cccc[n+]23)c1` [Example I-1-049]: the figures for the efficacy with Myzus persicae [2], in the data set on Boophilus microplus and in the data set on Myzus persicae [3] were 100%, 80% and 90%, respectively. In addition, the log p in data set [1] is 1.72. The “efficacy (kill in %)” value in the data set with Lucilia cuprina came out at 100%.
With `CC(c1ccc(Cl)nc1)n1c([O-])c(C(=O)CCl)[n+]2ccccc12` (centres unmarked) [Example I-1-161], in the data set with Myzus persicae [2], the efficacy worked out at 100%. The compound further came in with a log p in data set [1] of 1.75. In the data set on Meloidogyne incognita, this compound yielded a nematicidal efficacy of 90%.
For `COc1ccc[n+]2c(C(=O)NC3CC3)c([O-])n(Cc3cnc(Cl)s3)c12` [Example I-1-240], the efficacy in the data set on Ctenocephalides felis and in the data set on Myzus persicae [2] was 100% in each case. For the same compound, the “log p a)” value in data set [1] turned out to be 1.96.
Regarding `Cc1cccc(C)c1NC(=O)c1c([O-])n(Cc2cnc(Cl)s2)c2cccc[n+]12` [Example I-1-321], the efficacy in the data set on Myzus persicae [2] amounted to 100%. The “log p a)” value in [1] is 2.76. In the data set on Meloidogyne incognita, this compound yielded a nematicidal efficacy of 90%.
On to `Cc1ccc(Cn2c([O-])c(C(=O)NC3CC3)[n+]3ccccc23)cn1` [Example I-1-243], for which the efficacy in the data set with Ctenocephalides felis and with Myzus persicae [2] was 100% throughout. The “log p a)” value in data set [1] amounted to 0.81.
In the case of `O=C(Nc1c(F)cccc1Cl)c1c([O-])n(Cc2ccc(Cl)nc2)c2cccc[n+]12` [Example I-1-316], the efficacy with Myzus persicae [2] and with Myzus persicae [3] was 100% each time. For the same compound, in [1], the “log p a)” value turned out to be 2.44. Also, in the data set with Meloidogyne incognita, the nematicidal efficacy is reported as 90%.
With `CC(C)OCC(=O)c1c([O-])n(Cc2ccc(Cl)nc2)c2cccc[n+]12` [Example I-1-016], the efficacy with Myzus persicae [2], with Boophilus microplus and in the data set with Myzus persicae [3] was 100% throughout. The compound also returned a log p in [1] of 1.67.
As for `O=C(Nc1c(Cl)cccc1Cl)c1c([O-])n(Cc2ccc(Cl)nc2)c2cccc[n+]12` [Example I-1-314], the efficacy with Myzus persicae [2] and in the data set on Myzus persicae [3] was 100% each time. The “log p a)” value in [1] stood at 2.59. Besides, in the data set on Meloidogyne incognita, the nematicidal efficacy was 90%.
For the compound `Cc1ccc[n+]2c(C(=O)Nc3c(F)cccc3Cl)c([O-])n(Cc3cnc(Cl)s3)c12` [Example I-1-276], the efficacy in the data set with Myzus persicae [2] worked out at 100%; in the data set on Diabrotica balteata, 100%; in the data set on Myzus persicae [3], 90%. Besides, in data set [1], the “log p a)” value is listed as 2.93. For the same compound, the nematicidal efficacy in the data set on Meloidogyne incognita came to 90%.
For `Cc1cnc(Cn2c([O-])c(C(=O)NC3CC3)[n+]3ccccc23)cn1` [Example I-1-217], the efficacy in the data set with Myzus persicae [2] is recorded as 100%; in the data set on Boophilus microplus it was 80%; in the data set on Myzus persicae [3], 100%. Further, the “log p a)” value in [1] is 1.13.
As to `O=C(NC1CC1)c1c([O-])n(Cc2cncnc2)c2cccc[n+]12` [Example I-1-152], the efficacy with Myzus persicae [2] is 100%; in the data set with Boophilus microplus, 80%; in the data set with Myzus persicae [3] it was 90%. Also, the log p in data set [1] stood at 0.84.
In the case of `CSc1ccn(CC(=O)c2c([O-])n(Cc3ccc(Cl)nc3)c3cccc[n+]23)n1` [Example I-1-054], the efficacy with Myzus persicae [2], with Boophilus microplus and with Myzus persicae [3] was 100% in each case. The log p in data set [1] came out at 1.35.
In turn, `COc1cccc(F)c1NC(=O)c1c([O-])n(Cc2cnc(Cl)s2)c2cccc[n+]12` [Example I-1-323] returned an efficacy in the data set with Myzus persicae [2] of 100%. The “log p a)” value in [1] is given as 2.27. Further, in the data set on Meloidogyne incognita, the nematicidal efficacy is reported as 90%.
